Data: PubChem BioAssay (NCI)
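Tested at 5 concentrations; 48 h exposure; 96-well plates; endpoints linearly interpolated, else capped at highest concentration. TGI: concentration producing complete growth inhibition.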 Where a SMILES comes first, the peptide text is derived from it. [ ]: non-standard residue; d: D form. ΔPro = O=C(O)[CH]1C=CCN1

Tests used:
Test in all cases: growth of human tumour cells (NCI), 48 h
SK-MEL-28 melanoma = tested on: SK-MEL-28 melanoma
HS 578T breast = tested on: HS 578T breast
SF-539 CNS = tested on: SF-539 CNS
HOP-62 NSCLC = tested on: HOP-62 NSCLC
SK-MEL-5 melanoma = tested on: SK-MEL-5 melanoma
OVCAR-5 ovarian = tested on: OVCAR-5 ovarian
K-562 leukemia = tested on: K-562 leukemia
SF-268 CNS = tested on: SF-268 CNS
COLO 205 colon = tested on: COLO 205 colon
NCI-H460 lung = tested on: NCI-H460 lung
HOP-92 NSCLC = tested on: HOP-92 NSCLC
MOLT-4 leukemia = tested on: MOLT-4 leukemia
CCRF-CEM leukemia = tested on: CCRF-CEM leukemia
MDA-MB-435 = tested on: MDA-MB-435
MDA-MB-231 breast = tested on: MDA-MB-231 breast

## N=c1oc2ccccc2cc1C(=O)Nc1cccc2ccccc12
SK-MEL-28 melanoma
  TGI: > 100 µM
HS 578T breast
  TGI: > 100 µM
SF-539 CNS
  TGI: > 100 µM
HOP-62 NSCLC
  TGI: > 100 µM
SK-MEL-5 melanoma
  TGI: > 100 µM
OVCAR-5 ovarian
  TGI: > 100 µM
K-562 leukemia
  TGI: > 100 µM
SF-268 CNS
  TGI: > 100 µM
COLO 205 colon
  TGI: > 100 µM
NCI-H460 lung
  TGI: > 100 µM
HOP-92 NSCLC
  TGI: > 100 µM
MOLT-4 leukemia
  TGI: > 100 µM
CCRF-CEM leukemia
  TGI: > 100 µM
MDA-MB-435
  TGI: > 100 µM
MDA-MB-231 breast
  TGI: > 100 µM

## CC(C)(C)OC(=O)N(O)[C@@H]1CC[C@H](n2cnc3c(N)ncnc32)C1
SK-MEL-28 melanoma
  TGI: > 100 µM
HS 578T breast
  TGI: > 100 µM
SF-539 CNS
  TGI: > 100 µM
HOP-62 NSCLC
  TGI: > 100 µM
SK-MEL-5 melanoma
  TGI: > 100 µM
OVCAR-5 ovarian
  TGI: > 100 µM
K-562 leukemia
  TGI: > 100 µM
SF-268 CNS
  TGI: > 100 µM
COLO 205 colon
  TGI: > 100 µM
NCI-H460 lung
  TGI: > 100 µM
HOP-92 NSCLC
  TGI: > 100 µM
MOLT-4 leukemia
  TGI: > 100 µM
CCRF-CEM leukemia
  TGI: > 100 µM
MDA-MB-435
  TGI: > 100 µM
MDA-MB-231 breast
  TGI: > 100 µM

## O=C(O)C1C=CCN1C(=O)C1C=CCN1C(=O)C1C=CCN1 (stereo not given) (H-[ΔPro]-[ΔPro]-[ΔPro]-OH; configuration not given here)
SK-MEL-28 melanoma
  TGI: > 100 µM
HS 578T breast
  TGI: > 100 µM
SF-539 CNS
  TGI: > 100 µM
HOP-62 NSCLC
  TGI: > 100 µM
SK-MEL-5 melanoma
  TGI: > 100 µM
OVCAR-5 ovarian
  TGI: > 100 µM
K-562 leukemia
  TGI: > 100 µM
SF-268 CNS
  TGI: > 100 µM
COLO 205 colon
  TGI: > 100 µM
NCI-H460 lung
  TGI: > 100 µM
HOP-92 NSCLC
  TGI: > 100 µM
MOLT-4 leukemia
  TGI: > 100 µM
CCRF-CEM leukemia
  TGI: > 100 µM
MDA-MB-435
  TGI: > 100 µM
MDA-MB-231 breast
  TGI: > 100 µM

## CC(=O)NS(=O)(=O)c1ccc(NCc2cccc3c(=O)c4ccc(Cl)cc4oc23)cc1
SK-MEL-28 melanoma
  TGI: > 100 µM
HS 578T breast
  TGI: 97.7 µM
SF-539 CNS
  TGI: > 65.3 µM
HOP-62 NSCLC
  TGI: 96.8 µM
SK-MEL-5 melanoma
  TGI: > 100 µM
OVCAR-5 ovarian
  TGI: > 100 µM
K-562 leukemia
  TGI: > 100 µM
SF-268 CNS
  TGI: > 100 µM
COLO 205 colon
  TGI: > 100 µM
NCI-H460 lung
  TGI: 51 µM
HOP-92 NSCLC
  TGI: 69.7 µM
MOLT-4 leukemia
  TGI: > 100 µM
CCRF-CEM leukemia
  TGI: > 86.7 µM
MDA-MB-435
  TGI: > 100 µM
MDA-MB-231 breast
  TGI: > 100 µM

## CN(C)[C@@H]1C(=O)C(C(=O)NCNc2nc3n[nH]nc3c(=O)[nH]2)=C(O)[C@@]2(O)C(=O)C3=C(O)c4c(O)cccc4[C@@](C)(O)[C@H]3C[C@@H]12
SK-MEL-28 melanoma
  TGI: 22.1 µM
HS 578T breast
  TGI: 53.5 µM
SF-539 CNS
  TGI: 8.88 µM
HOP-62 NSCLC
  TGI: 27.2 µM
SK-MEL-5 melanoma
  TGI: 10.9 µM
OVCAR-5 ovarian
  TGI: 98.6 µM
K-562 leukemia
  TGI: > 16.9 µM
SF-268 CNS
  TGI: > 92.2 µM
COLO 205 colon
  TGI: 57.4 µM
NCI-H460 lung
  TGI: > 97.1 µM
HOP-92 NSCLC
  TGI: > 30 µM
MOLT-4 leukemia
  TGI: > 17.2 µM
CCRF-CEM leukemia
  TGI: > 17.7 µM
MDA-MB-435
  TGI: 7.35 µM
MDA-MB-231 breast
  TGI: > 100 µM

## Clc1sc(Cl)c2c1[C@H](Cl)C[C@@H]2Cl
SK-MEL-28 melanoma
  TGI: 38.1 µM
HS 578T breast
  TGI: 44.1 µM
SF-539 CNS
  TGI: 42.4 µM
HOP-62 NSCLC
  TGI: > 100 µM
SK-MEL-5 melanoma
  TGI: > 100 µM
OVCAR-5 ovarian
  TGI: 81.2 µM
K-562 leukemia
  TGI: > 100 µM
SF-268 CNS
  TGI: 44.3 µM
COLO 205 colon
  TGI: 62.2 µM
NCI-H460 lung
  TGI: > 100 µM
HOP-92 NSCLC
  TGI: 34.4 µM
MOLT-4 leukemia
  TGI: > 100 µM
CCRF-CEM leukemia
  TGI: > 100 µM
MDA-MB-435
  TGI: 40.2 µM
MDA-MB-231 breast
  TGI: 90.5 µM

## COc1ccccc1-n1nnc2c(N)nc(N)nc21
SK-MEL-28 melanoma
  TGI: > 100 µM
HS 578T breast
  TGI: > 100 µM
SF-539 CNS
  TGI: > 100 µM
HOP-62 NSCLC
  TGI: > 100 µM
SK-MEL-5 melanoma
  TGI: > 100 µM
OVCAR-5 ovarian
  TGI: > 100 µM
K-562 leukemia
  TGI: > 100 µM
SF-268 CNS
  TGI: > 100 µM
COLO 205 colon
  TGI: > 100 µM
NCI-H460 lung
  TGI: > 100 µM
HOP-92 NSCLC
  TGI: > 100 µM
MOLT-4 leukemia
  TGI: > 100 µM
CCRF-CEM leukemia
  TGI: > 100 µM
MDA-MB-435
  TGI: > 100 µM
MDA-MB-231 breast
  TGI: > 100 µM
